# Reference: patent US8252935B2, “Piperidinyl and piperazinyl modulators of γ-secretase” (Janssen Pharmaceutica N.V., priority 2007, dated 2012)
# Biological target: γ-secretase (Homo sapiens, UniProt P49768)
# Experiment: Screening for γ-secretase-modulating activity in SKNBE2 cells carrying APP 695 wild type (assay of Citron et al 1997)
# Type: cell-based
# Settings: SKNBE2, @ 1 uM; SKNBE2 cells carrying the APP 695 wild type
# Method: Screening was carried out using SKNBE2 cells carrying the APP 695—wild type, grown in DMEM/NUT-mix F12 (HAM) provided by Gibco (cat no. 31330-38) containing 5% Serum/Fe supplemented with 1% non-essential amino acids. Cells were grown to near confluency. The screening was performed using the assay as described in Citron et al (1997) Nature Medicine 3: 67.
row,inhibition at 1 µM [%],Compound
1,51,"CC(C)CCC(c1ccc(C(F)(F)F)cc1)N1CCC(c2cc(-c3ccc(C(F)(F)F)cc3)cc(C(CC(C)C)C(=O)O)c2)CC1 (stereo not shown) [Example 71, 4-Methyl-2-(5-{1-[4-methyl-1-(4-trifluoromethyl-phenyl)-pentyl]-piperidin-4-yl}-4′-trifluoromethyl-biphenyl-3-yl)-pentanoic acid]"
2,59,"CC(C)CC(C(=O)O)c1cc(-c2ccc(C(F)(F)F)cc2)cc(C2CCCN(Cc3ccc(Oc4ccc(F)cc4)cc3)C2)c1 (stereo not shown) [Example 48, 2-(5-{1-[4-(4-Fluoro-phenoxy)-benzyl]-piperidin-3-yl}-4′-trifluoromethyl-biphenyl-3-yl)-4-methyl-pentanoic acid]"
3,45,"CCC1CCCCN1c1cc(-c2ccc(C(F)(F)F)cc2)cc(C(CC(C)C)C(=O)O)c1 (stereo not shown) [Example 2, 2-[5-(2-Ethyl-piperidin-1-yl)-4′-trifluoromethyl-biphenyl-3-yl]-4-methyl-pentanoic acid]"
4,30,"CC(C)CC(C(=O)O)c1cc(-c2ccc(C(F)(F)F)cc2)cc(C2CCC(C(F)(F)F)CN2)c1 (stereo not shown) [Example 23, 4-Methyl-2-[4′-trifluoromethyl-5-(5-trifluoromethyl-piperidin-2-yl)-biphenyl-3-yl]-pentanoic acid]"
5,2,"CC(C)CC(C(=O)O)c1cc(-c2ccc(C(F)(F)F)cc2)cc(C2CCNCC2)c1 (stereo not shown) [Example 68, 4-Methyl-2-(5-piperidin-4-yl-4′-trifluoromethyl-biphenyl-3-yl)-pentanoic acid]"
6,28,"CC(C)CC(C(=O)O)c1cc(-c2ccc(C(F)(F)F)cc2)cc(N2CCN(c3ccc(F)c(F)c3)CC2)c1 (stereo not shown) [Example 79, 2-{5-[4-(3,4-Difluoro-phenyl)-piperazin-1-yl]-4′-trifluoromethyl-biphenyl-3-yl}-4-methyl-pentanoic acid]"
7,35,"CC(C)CCN1C(c2cc(-c3ccc(C(F)(F)F)cc3)cc(C(F)(F)C(=O)O)c2)CCCC1C(F)(F)F (stereo not shown) [Example 22, Difluoro-{5-[1-(3-methyl-butyl)-6-trifluoromethyl-piperidin-2-yl]-4′-trifluoromethyl-biphenyl-3-yl}-acetic acid]"
8,0,"CC(C)CC(C(=O)O)c1cc(-c2ccc(C(F)(F)F)cc2)cc(C2CCCC(C)N2)c1 (stereo not shown) [Example 6, 4-Methyl-2-[5-(6-methyl-piperidin-2-yl)-4′-trifluoromethyl-biphenyl-3-yl]-pentanoic acid]"
9,46,"CC(C)CC(C(=O)O)c1cc(-c2ccc(C(F)(F)F)cc2)cc(C2CCN(Cc3cc(F)cc(F)c3)CC2)c1 (stereo not shown) [Example 75, 2-{5-[1-(3,5-Difluoro-benzyl)-piperidin-4-yl]-4′-trifluoromethyl-biphenyl-3-yl}-4-methyl-pentanoic acid]"
10,45,"CC(C)CC(C(=O)O)c1cc(-c2ccc(C(F)(F)F)cc2)cc(C2CCCN(c3ccc(F)c(F)c3)C2)c1 (stereo not shown) [Example 55, 2-{5-[1-(3,4-Difluoro-phenyl)-piperidin-3-yl]-4′-trifluoromethyl-biphenyl-3-yl}-4-methyl-pentanoic acid]"
11,8,"CC(C)CC(C(=O)O)c1cc(-c2ccc(C(F)(F)F)cc2)cc(N2CCC(F)(F)CC2)c1 (stereo not shown) [Example 5, 2-(5-(4,4-difluoropiperidin-1-yl)-4′-(trifluoromethyl)biphenyl-3-yl)-4-methylpentanoic acid]"
12,80,"CC(C)CC(C(=O)O)c1cc(-c2ccc(C(F)(F)F)cc2)cc(C2CCCN(C(c3ccccc3)c3ccccc3)C2)c1 (stereo not shown) [Example 54, 2-[5-(1-Benzhydryl-piperidin-3-yl)-4′-trifluoromethyl-biphenyl-3-yl]-4-methyl-pentanoic acid]"
13,47,"CC(C)CC(C(=O)O)c1cc(-c2ccc(C(F)(F)F)cc2)cc(C2CCN(Cc3cc(F)cc(C(F)(F)F)c3)CC2)c1 (stereo not shown) [Example 70, 2-{5-[1-(3-Fluoro-5-trifluoromethyl-benzyl)-piperidin-4-yl]-4′-trifluoromethyl-biphenyl-3-yl}-4-methyl-pentanoic acid]"
14,70,"CC(C)CC(C(=O)O)c1cc(-c2ccc(C(F)(F)F)cc2)cc(C2CCCN(S(=O)(=O)c3cccc(C(F)(F)F)c3)C2)c1 (stereo not shown) [Example 40, 4-Methyl-2-{4′-trifluoromethyl-5-[1-(3-trifluoromethyl-benzenesulfonyl)-piperidin-3-yl]-biphenyl-3-yl}-pentanoic acid]"
15,30,"CC(C)CC(C(=O)O)c1cc(-c2ccc(C(F)(F)F)cc2)cc(C2CCC(C(F)(F)F)CN2C)c1 (stereo not shown) [Example 13, 4-Methyl-2-[5-(1-methyl-5-trifluoromethyl-piperidin-2-yl)-4′-trifluoromethyl-biphenyl-3-yl]-pentanoic acid]"
16,35,"CC(C)CC(C(=O)O)c1cc(-c2ccc(C(F)(F)F)cc2)cc(N2CCN(c3cccc(C(F)(F)F)c3)CC2)c1 (stereo not shown) [Example 80, 4-Methyl-2-{4′-trifluoromethyl-5-[4-(3-trifluoromethyl-phenyl)-piperazin-1-yl]-biphenyl-3-yl}-pentanoic acid]"
17,55,"CC(C)CC(C(=O)O)c1cc(-c2ccc(C(F)(F)F)cc2)cc(C2CCCN(C(=O)c3ccc(C(F)(F)F)cc3)C2)c1 (stereo not shown) [Example 43, 4-Methyl-2-{4′-trifluoromethyl-5-[1-(4-trifluoromethyl-benzoyl)-piperidin-3-yl]-biphenyl-3-yl}-pentanoic acid]"
18,75,"CC(C)CCC(c1ccc(C(F)(F)F)cc1)N1CCCC(c2cc(-c3ccc(C(F)(F)F)cc3)cc(C(CC(C)C)C(=O)O)c2)C1 (single isomer, unassigned) [Example 56, (R*) 4-Methyl-2-(5-{1-[4-methyl-1-(4-trifluoromethyl-phenyl)-pentyl]-piperidin-3-yl}-4′-trifluoromethyl-biphenyl-3-yl)-pentanoic acid]"
19,57,"CC(C)CC(C(=O)O)c1cc(-c2ccc(C(F)(F)F)cc2)cc(C2CCCN(Cc3ccc4ccccc4c3)C2)c1 (stereo not shown) [Example 46, 4-Methyl-2-[5-(1-naphthalen-2-ylmethyl-piperidin-3-yl)-4′-trifluoromethyl-biphenyl-3-yl]-pentanoic acid]"
20,44,"CC(C)CC(C(=O)O)c1cc(-c2ccc(C(F)(F)F)cc2)cc(C2CCCN(C(C)c3ccc(C(F)(F)F)cc3)C2)c1 (single isomer, unassigned) [Example 63, (S*)-4-Methyl-2-(4′-trifluoromethyl-5-{1-[1-(4-trifluoromethyl-phenyl)-ethyl]-piperidin-3-yl}-biphenyl-3-yl)-pentanoic acid]"
21,6,"CC(C)CC(C(=O)O)c1cc(-c2ccc(C(F)(F)F)cc2)cc(C2CCN(c3ccc(C(F)(F)F)cc3)CC2)c1 (stereo not shown) [Example 72, 4-Methyl-2-{4′-trifluoromethyl-5-[1-(4-trifluoromethyl-phenyl)-piperidin-4-yl]-biphenyl-3-yl}-pentanoic acid]"
22,5,"CC(C)CCN1CCCC(c2cc(-c3ccc(C(F)(F)F)cc3)cc(C(CC(C)C)C(=O)O)c2)C1 (stereo not shown) [Example 62, 4-Methyl-2-{5-[1-(3-methyl-butyl)-piperidin-3-yl]-4′-trifluoromethyl-biphenyl-3-yl}-pentanoic acid]"
23,8,"CC(C)C[C@@H](C(=O)O)c1cc(-c2ccc(C(F)(F)F)cc2)cc([C@@H]2CC[C@H](C(F)(F)F)NC2)c1 (relative stereo) [Example 35, 4-Methyl-2-[4′-trifluoromethyl-5-(6-trifluoromethyl-piperidin-3-yl)-biphenyl-3-yl]-pentanoic acid]"
24,17,"CC(C)CC(C(=O)O)c1cc(-c2ccc(C(F)(F)F)cc2)cc(C2CCCN(Cc3ccc4nnn(C)c4c3)C2)c1 (stereo not shown) [Example 50, 4-Methyl-2-{5-[1-(3-methyl-3H-benzotriazol-5-ylmethyl)-piperidin-3-yl]-4′-trifluoromethyl-biphenyl-3-yl}-pentanoic acid]"
25,58,"CC(C)CC(C(=O)O)c1cc(-c2ccc(C(F)(F)F)cc2)cc(C2CCCN(Cc3cc(C(C)(C)C)cc(C(C)(C)C)c3)C2)c1 (stereo not shown) [Example 52, 2-{5-[1-(3,5-Di-tert-butyl-benzyl)-piperidin-3-yl]-4′-trifluoromethyl-biphenyl-3-yl}-4-methyl-pentanoic acid]"
